# How the values were obtained:
# L-selectin = assay: Precipitation of metabolically labelled GlyCAM-1 from lymph node cultures with L-selectin chimera (LEC-IgG); format: cell-based
# Description: (§1) Slices of mouse lymph nodes were cultured with ^35S-sulfate in the presence and absence of 10 mM sodium chlorate. Detergent lysates were prepared and subjected to precipitation with several reagents that recognize GlyCAM-1. […] Only a background level (0.9% of control) of radioactivity was measured in the precipitate from the chlorate-treated culture.
# (§2) To determine directly whether the fucosylation of GlyCAM-1 was affected by chlorate, ^3H-fucose was employed as a metabolic precursor. […] However, while LEC-IgG precipitated GlyCAM-1 in the control culture, LEC-IgG precipitated only a background level of counts (7% of control) from the chlorate-treated culture and there was no detectable GlyCAM-1.
# (§3) To determine what effect chlorate had on the synthesis of the protein core of GlyCAM-1, we employed ^3H-threonine as a metabolic label. […] With or without chlorate treatment, two antibodies against the core protein of GlyCAM-1 precipitated broad bands that ran at ≈50K.
# (§4) Pooled mesenteric and peripheral lymph nodes from ICR mice (80 mg wet weight per condition) were incubated with (a) 250 µCi of [^35-S]-sodium sulfate (ICN) or (b) 250 µCi of [5,6 ^3-H]-L-fucose (ICN) in the presence or absence of 10 mM Na chlorate (Aldrich) in 0.5 ml of RPMI-1640 with 25 mM HEPES (1/10 sulfate concentration) for 4 h at 37°C. Tissue was extracted with 1.2 ml of 2% Triton X-100 (Boehringer Mannheim) in Dulbecco's PBS containing 1 mM PMSF (Sigma), 1% (v/v) aprotinin (Sigma), 10 µg/ml of pepstatin (Boehringer Mannheim) and 0.02% NaN3 (lysis buffer) as described previously^11. The lysates were boiled 3 min and the supernatants were precleared with 100 µl of Protein A Sepharose (Zymed) overnight. Aliquots of the precleared supernatants were added to 10 µl beads of LEC-IgG-Protein A Sepharose Beads (30 µg LEC-IgG per 10 µl beads), rabbit anti-peptide 2-Protein A beads (10 µl serum per 10 µl beads), rabbit preimmune serum-Protein A beads (10 µl serum per 10 µl beads), Limax flavus agglutinin-Sepharose beads (20 µg protein per 10 µl beads), or Aleuria aurantia agglutinin-Sepharose beads (10 µg protein per 10 µl beads), and incubated for 4 h at 4°C on a rocker. The beads were washed in the lysis buffer (6 times), and the 1/14 aliquots of beads were saved for direct counting by a scintillation counting and the remainder of beads were solubilized in Laemmli sample buffer (without beta mercaptoethanol) and run by on a 10% acrylamide gel (nonreducing condition) with fluorography employing ENHANCE (New England Nuclear). Molecular weight markers (BioRad) were phosphorylase B (97.4 K), BSA (66.2 K), ovalbumin (45 K), carbonic anhydrase (31 K), soybean trypsin inhibitor (21.5 K). LEC-IgG and antiserum were coated on Protein A-Sepharose beads by rocking overnight at 4°C. Lectin beads were prepared by coupling Limax agglutinin (Calbiochem) and AAA (Boehringer Mannheim) to CNBr-activated Sepharose 4B (Sigman). Miller, R., Meth. Enzymol. 138:527-536 (1987).
# (§5) Mouse lymph nodes were labeled with 750 µCi of L-[3-^3H] threonine (Amersham) in 0.5 ml of threonine free-1/10 sulfate concentration-RPMI 1640 containing 25 mM HEPES for 4 h at 37°C in the absence or the presence of 10 mM sodium chlorate. Detergent lysates were boiled, precleared and subjected to precipitation with the indicated reagent as described in Example 1. Conditioned media were precleared and precipitated in parallel. The bead-bound material was analyzed on SDS-PAGE under reducing conditions with fluorography. In the anti-peptide antibody lanes, the ≈50K component was compressed by the immunoglobulin heavy chain.
# GlyCAM-1 [1] = assay: [3H]-fucose metabolic labelling of lymph node organ culture (fucosylation of GlyCAM-1); format: cell-based, mouse
# Description: as §2
# Pooled mesenteric and peripheral lymph nodes from ICR mice (80 mg wet weight per condition) were incubated with (a) 250 µCi of [^35-S]-sodium sulfate (ICN) or (b) 250 µCi of [5,6 ^3-H]-L-fucose (ICN) in the presence or absence of 10 mM Na chlorate (Aldrich) in 0.5 ml of RPMI-1640 with 25 mM HEPES (1/10 sulfate concentration) for 4 h at 37°C. Tissue was extracted with 1.2 ml of 2% Triton X-100 (Boehringer Mannheim) in Dulbecco's PBS containing 1 mM PMSF (Sigma), 1% (v/v) aprotinin (Sigma), 10 µg/ml of pepstatin (Boehringer Mannheim) and 0.02% NaN3 (lysis buffer) as described previously^11. The lysates were boiled 3 min and the supernatants were precleared with 100 µl of Protein A Sepharose (Zymed) overnight. […]
# CD34/Sgp90 = assay: Interaction of CD34/Sgp90 with L-selectin after inhibition of its sulfation; format: cell-based; conditions: sulfation inhibited by chlorate treatment
# Text: The complete loss of reactivity with LEC-IgG establishes the importance of sulfation for binding. […] CD34/Sgp90 is also a sulfated ligand of L-selectin.
# GlyCAM-1 [2] = assay: [3H]-threonine metabolic labelling of lymph nodes (synthesis of protein core); format: cell-based, mouse; conditions: presence of chlorate
# Description: as §3, §5
# GlyCAM-1 [3] = assay: Label incorporation into GlyCAM-1 immunoprecipitated (CAM02 Ab) from conditioned medium of lymph node organ culture; format: cell-based, mouse
# Description: (^3H-Gal)-labeled GlyCAM-1 was produced in mouse lymph node organ cultures as described in Examples 1-4 above. Undersulfated GlyCAM was generated by organ culture of murine lymph nodes in medium containing 10 mM Na-chlorate, a known inhibitor of sulfation. GlyCAM-1 was isolated from the conditioned media by immunoprecipitation with an antibody to a peptide sequence in the core protein of GlyCAM-1 (CAM02 Ab), as described in Examples 1-4 above. […] Desialylation of GlyCAM-1 was accomplished in all cases by treatment with Arthrobacter ureafacens sialidase (1.75 units/ml) in 120 mM Na acetate, pH 5.5 (18 h 37°C).
# GlyCAM-1 [4] = assay: [35S]-sulfate metabolic labelling of lymph node organ culture; precipitation of GlyCAM-1 with peptide antibody or lectins, scintillation counting; format: cell-based, mouse
# Description: as §1, §4
# Inhibition of GlyCAM-1 sulfation eliminates its interaction and/or binding with L-selectin. This conclusion was reached when aliquots of the same precipitates of Example 1, labeled with (a) [^35-S]-sulfate or (b) [^3-H]-fucose in the presence (dark bars) or absence (cross-hatched bars) of chlorate were subjected to scintillation counting. The percents shown in a given panel (a) (not shown) indicate the percent counts obtained in the presence of chlorate as compared to the absence of chlorate. The values for anti-peptide 2, Limax, and AAA were essentially the same, reflecting the overall reduction in sulfation. In an independent experiment, the corresponding values were: 6% (for LEC-IgG), 35.6% (for anti-peptide 2), 35.3% (for Limax).
# [5] = chlorate 10 mM in organ cultures of lymph nodes
smiles,measurement,setting,value
"[O-][Cl+2]([O-])O [chlorate, sodium chlorate]","percent counts in the presence of chlorate as compared to the absence, LEC-IgG","L-selectin; [^35-S]-sulfate label, independent experiment, 10000 µM",6%
same,counts precipitated by LEC-IgG,"L-selectin; ^3H-fucose label, chlorate-treated culture, 10000 µM",7 % of control
same,GlyCAM-1 component precipitated by LEC-IgG from conditioned medium,"L-selectin; ^3H-threonine label, chlorate present during the culture",did not react with any components
same,radioactivity in the LEC-IgG precipitate,"L-selectin; ^35S-sulfate label, 10 mM sodium chlorate, detergent lysates",0.9 % of control
same,GlyCAM-1 band precipitated by LEC-IgG (SDS-PAGE),"L-selectin; ^35S-sulfate label, chlorate-treated culture, strong band in control",failed to precipitate a detectable GlyCAM-1 band
same,binding to L-selectin (GlyCAM and CD34),L-selectin; [5],completely eliminated
same,binding of LEC-IgG to GlyCAM,L-selectin; culture in chlorate,completely abrogated
same,cpm precipitated by the peptide antibody,"GlyCAM-1 [1]; ^3H-fucose label, detergent lysates, chlorate versus control cultures",approximately the same number of cpm
same,level of fucosylation (incorporation of [^3H]-fucose into GlyCAM),GlyCAM-1 [1]; presence of chlorate,not affected
same,ability of CD34/Sgp90 to interact with L-selectin,CD34/Sgp90,drastically inhibited
same,rate of synthesis of the protein core of GlyCAM or CD34,GlyCAM-1 [2],did not affect
same,"[^3H]-galactose activity incorporated by GlyCAM, presence versus absence of chlorate","GlyCAM-1 [3]; 10 mM Na-chlorate, 0.25 mCi input",about the same
same,incorporation of [^35S]-sulfate into GlyCAM,"GlyCAM-1 [3]; 10 mM Na-chlorate, 0.5 mCi input, control 1.75 x 10^6 cpm",0.16 x 10^6 cpm
same,activity at 10000 µM,"GlyCAM-1 [3]; Mus musculus, 10 mM Na-chlorate, 0.5 mCi input, read-out: incorporation of [^35S]-sulfate into GlyCAM",10%
same,[^3H]-galactose activity incorporated by GlyCAM,"GlyCAM-1 [3]; presence or absence of chlorate, 0.25 mCi input",2 x 10^6 cpm
same,activity at 10000 µM,"GlyCAM-1 [4]; Mus musculus, [^35-S]-sulfate label, independent experiment, read-out: percent counts in the presence of chlorate as compared to the absence, Limax",35.3%
same,activity at 10000 µM,"GlyCAM-1 [4]; Mus musculus, [^35-S]-sulfate label, independent experiment, read-out: percent counts in the presence of chlorate as compared to the absence, anti-peptide 2",35.6%
same,activity at 10000 µM,"GlyCAM-1 [4]; Mus musculus, ^35S-sulfate label, 10 mM sodium chlorate, detergent lysates, scintillation counting, read-out: radioactivity immunoprecipitated by the peptide antibody",12%
same,activity at 10000 µM,"GlyCAM-1 [4]; Mus musculus, ^35S-sulfate label, 10 mM sodium chlorate, detergent lysates, read-out: ^35S-sulfate precipitated by Aleuria aurentia lectin",13.7%
same,activity at 10000 µM,"GlyCAM-1 [4]; Mus musculus, ^35S-sulfate label, 10 mM sodium chlorate, detergent lysates, read-out: ^35S-sulfate precipitated by Limax agglutinin",11.4%
same,inhibition at 10000 µM,"GlyCAM-1 [4]; Mus musculus, chlorate 10 mM in organ cultures of lymph nodes, read-out: reduction of incorporation of ^35S-SO4 into GlyCAM and CD34",~90%
same,activity at 10000 µM,"GlyCAM-1 [4]; Mus musculus, inferred from the ratio of counts precipitated by the peptide antibody, read-out: sulfate incorporation into GlyCAM-1",10 to 15%
same,Binding of GlyCAM to a fucose-specific lectin (Aleuria aurantia agglutinin),GlyCAM-1 [4]; [5],unchanged
same,Binding of GlyCAM to a sialic acid specific lectin (Limax agglutinin),GlyCAM-1 [4]; [5],unchanged
